According to US20220356174A1, “PYRIDIN-2-ONE COMPOUNDS USEFUL AS SMARCA2 ANTAGONISTS” (Epizyme, Inc., priority 2018, published 2022):
pIC50: −log10 of the molar value.

Key:
FL-SMARCA4 = FL-SMARCA4 (Homo sapiens, UniProt P51532); experiment: SMARCA4 ATPase activity assay (ADP-Glo, chicken mononucleosome substrate); conditions: ATPase assay, enzyme 5 nM, ATP 250 uM, chicken mononucleosome 10 nM, 30 min preincubation
Method: Substrates. Chicken erythrocyte mononucleosomes were prepared from fresh chicken blood collected into anticoagulant and filtered through cheesecloth. The filtered chicken blood was diluted in buffer A (10 mM Tris-HCl, pH 7.4, 10 mM NaCl, 3 mM MgCl2) and centrifuged at 500 g for 15 minutes to collect the erythrocytes. Erythrocyte nuclei were harvested by resuspending the pellets in buffer A containing 0.3% NP-40 detergent. The mixture was stirred with a magnetic bar for 10 mins and centrifuged at 4000 g for 10 minutes. Resuspension, stirring and centrifugation was repeated twice more before the final nuclei pellet was resuspended in buffer A+0.3% NP-40 and stored at −80° C. until purification. For nucleosome purification, nuclei aliquots were rapidly thawed and washed five times with buffer B (10 mM Tris-HCl, pH 7.4, 1 mM CaCl2), 1 mM PMSF) and collected by centrifugation at 2800 g for 10 minutes. Pellets were resuspended in buffer B and treated with 100 U/mL micrococcal nuclease for 40 minutes at 37° C. The reaction was terminated by the addition of 2 mM EDTA and was centrifuged at 2800 g for 10 minutes. The nuclei were then lysed by resuspending the pellet in 1 mM EDTA and 1 mM PMSF and passing the mixture through a 22G needle 4 to 5 times. The solution was then centrifuged at 15,000 g for 20 minutes and the supernatant was collected. The remaining pellet was lysed through the syringe twice more and the supernatants were pooled after centrifugation. The pooled supernatants were further purified by size exclusion chromatography (GE Sephacryl S300 HR 50/100) in buffer C (10 mM HEPES, pH 7.5, 10 mM KCl, 1 mM EDTA, 1 mM PMSF, 10% glycerol). Fractions were analyzed by agarose gel electrophoresis and SDS-PAGE and fractions containing mononucleosomes were pooled and stored at −80° C.
The SMARCA2 or SMARCA4 ATPase assays were identical. The SMARCA2 or SMARCA4 ATPase assays were performed in a buffer consisting of 20 mM Bicine (pH 7.5), 10 mM KCl, 1 mM MgCl2, 1 mM TCEP, 0.005% BSG, and 0.002% Tween 20, prepared on the day of use. Compounds in 100% DMSO were 3-fold serially diluted to produce a 10 point curve for IC50 determination and 0.2 uL were transferred into polypropylene 384-well V-bottom plates (Greiner) using an Echo liquid handler (Labcyte). DMSO (0.2 uL) was added to Columns 11, 12, 23, 24, rows A-H for the maximum signal control and 0.2 uL doxorubicin, a known DNA intercalator, was added to columns 11, 12, 23, 24, rows I-P for the minimum signal control. The SMARCA2 or SMARCA4 enzyme (10 uL) was added to the compounds and allowed to incubate with the compounds for 30 min at room temperature. The SMARCA2 or SMARCA4 ATPase assay was initiated by the addition of 10 uL chicken mononucleosome and ATP mixture (final volume=20 uL). The final concentrations of the assay components were as follows: SMARCA2 or SMARCA4 was 5 nM, ATP was 250 uM, chicken mononucleosome was 10 nM, doxorubicin in the minimum signal control wells was 50 uM, and the DMSO concentration was 1%. 5 uL of the reaction mixture was transferred from the 384-well polypropylene plate to a white opaque polystyrene 384-well plate. At 60 minutes, the assays were terminated by the addition of 5 uL ADP-Glo™ Reagent (Promega). After 40 minutes, the luciferase reaction was initiated by the addition of 10 uL of Kinase Detection Reagent (Promega) and incubated for 1 hour. The ADP product generated from the SMARCA2 or SMARCA4 ATPase reaction was determined via luminescence intensity.

[1] = biological target: T1, FL-SMARCA2 (full-length human SMARCA2 isoform 1) (Homo sapiens, UniProt P51531); experiment: SMARCA2 ATPase activity assay (ADP-Glo, chicken mononucleosome substrate); format: biochemical; conditions: ATPase assay, enzyme 5 nM, ATP 250 uM, chicken mononucleosome 10 nM, 30 min preincubation
T1 construct: FLAG tag (YKDDDDK) (C); made in house; host or cells: Sf21 insect cells (baculovirus, pFastBacI)
T1 sequence (P51531 with tags, fused parts or gaps): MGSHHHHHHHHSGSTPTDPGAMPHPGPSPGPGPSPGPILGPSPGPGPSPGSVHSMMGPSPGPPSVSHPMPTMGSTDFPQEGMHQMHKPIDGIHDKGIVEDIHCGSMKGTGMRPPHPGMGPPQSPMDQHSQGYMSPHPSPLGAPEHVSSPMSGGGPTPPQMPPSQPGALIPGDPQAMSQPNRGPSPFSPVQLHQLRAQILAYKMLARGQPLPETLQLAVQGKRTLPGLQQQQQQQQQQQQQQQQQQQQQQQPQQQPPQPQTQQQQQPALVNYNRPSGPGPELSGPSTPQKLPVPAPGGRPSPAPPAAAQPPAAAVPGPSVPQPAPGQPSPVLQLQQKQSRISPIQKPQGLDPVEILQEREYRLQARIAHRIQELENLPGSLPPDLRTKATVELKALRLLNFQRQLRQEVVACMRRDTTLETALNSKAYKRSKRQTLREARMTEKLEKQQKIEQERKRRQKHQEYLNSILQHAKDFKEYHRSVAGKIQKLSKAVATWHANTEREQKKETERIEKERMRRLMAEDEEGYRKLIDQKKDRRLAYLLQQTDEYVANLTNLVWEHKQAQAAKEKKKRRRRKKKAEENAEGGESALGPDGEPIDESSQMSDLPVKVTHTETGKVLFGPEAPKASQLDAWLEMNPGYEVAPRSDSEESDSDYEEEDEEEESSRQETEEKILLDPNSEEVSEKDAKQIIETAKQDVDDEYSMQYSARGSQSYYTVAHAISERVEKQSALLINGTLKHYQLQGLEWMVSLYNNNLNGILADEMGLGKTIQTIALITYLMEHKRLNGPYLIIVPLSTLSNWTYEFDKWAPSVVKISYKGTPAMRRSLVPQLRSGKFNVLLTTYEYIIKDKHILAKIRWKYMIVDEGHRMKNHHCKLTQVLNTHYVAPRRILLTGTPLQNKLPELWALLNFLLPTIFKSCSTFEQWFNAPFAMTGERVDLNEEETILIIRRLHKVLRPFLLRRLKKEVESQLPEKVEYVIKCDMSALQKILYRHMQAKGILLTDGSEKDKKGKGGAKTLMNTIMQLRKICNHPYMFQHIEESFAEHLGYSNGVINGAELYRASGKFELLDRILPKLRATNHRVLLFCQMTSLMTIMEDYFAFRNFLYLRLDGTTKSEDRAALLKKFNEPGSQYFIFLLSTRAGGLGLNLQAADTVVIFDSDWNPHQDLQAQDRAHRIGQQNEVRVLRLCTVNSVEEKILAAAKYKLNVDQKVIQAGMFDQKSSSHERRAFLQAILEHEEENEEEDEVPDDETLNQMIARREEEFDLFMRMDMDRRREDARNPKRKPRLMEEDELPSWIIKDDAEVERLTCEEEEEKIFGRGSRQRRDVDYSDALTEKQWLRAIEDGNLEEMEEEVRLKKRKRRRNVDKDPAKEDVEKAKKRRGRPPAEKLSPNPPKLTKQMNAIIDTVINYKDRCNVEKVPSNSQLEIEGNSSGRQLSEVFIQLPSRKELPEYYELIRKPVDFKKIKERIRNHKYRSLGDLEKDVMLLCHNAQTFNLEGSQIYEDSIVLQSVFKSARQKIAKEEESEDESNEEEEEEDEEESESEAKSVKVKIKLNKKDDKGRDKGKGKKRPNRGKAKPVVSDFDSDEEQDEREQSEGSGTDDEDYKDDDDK

FL-SMARCA4, sequence (P51532 whole entry, canonical isoform): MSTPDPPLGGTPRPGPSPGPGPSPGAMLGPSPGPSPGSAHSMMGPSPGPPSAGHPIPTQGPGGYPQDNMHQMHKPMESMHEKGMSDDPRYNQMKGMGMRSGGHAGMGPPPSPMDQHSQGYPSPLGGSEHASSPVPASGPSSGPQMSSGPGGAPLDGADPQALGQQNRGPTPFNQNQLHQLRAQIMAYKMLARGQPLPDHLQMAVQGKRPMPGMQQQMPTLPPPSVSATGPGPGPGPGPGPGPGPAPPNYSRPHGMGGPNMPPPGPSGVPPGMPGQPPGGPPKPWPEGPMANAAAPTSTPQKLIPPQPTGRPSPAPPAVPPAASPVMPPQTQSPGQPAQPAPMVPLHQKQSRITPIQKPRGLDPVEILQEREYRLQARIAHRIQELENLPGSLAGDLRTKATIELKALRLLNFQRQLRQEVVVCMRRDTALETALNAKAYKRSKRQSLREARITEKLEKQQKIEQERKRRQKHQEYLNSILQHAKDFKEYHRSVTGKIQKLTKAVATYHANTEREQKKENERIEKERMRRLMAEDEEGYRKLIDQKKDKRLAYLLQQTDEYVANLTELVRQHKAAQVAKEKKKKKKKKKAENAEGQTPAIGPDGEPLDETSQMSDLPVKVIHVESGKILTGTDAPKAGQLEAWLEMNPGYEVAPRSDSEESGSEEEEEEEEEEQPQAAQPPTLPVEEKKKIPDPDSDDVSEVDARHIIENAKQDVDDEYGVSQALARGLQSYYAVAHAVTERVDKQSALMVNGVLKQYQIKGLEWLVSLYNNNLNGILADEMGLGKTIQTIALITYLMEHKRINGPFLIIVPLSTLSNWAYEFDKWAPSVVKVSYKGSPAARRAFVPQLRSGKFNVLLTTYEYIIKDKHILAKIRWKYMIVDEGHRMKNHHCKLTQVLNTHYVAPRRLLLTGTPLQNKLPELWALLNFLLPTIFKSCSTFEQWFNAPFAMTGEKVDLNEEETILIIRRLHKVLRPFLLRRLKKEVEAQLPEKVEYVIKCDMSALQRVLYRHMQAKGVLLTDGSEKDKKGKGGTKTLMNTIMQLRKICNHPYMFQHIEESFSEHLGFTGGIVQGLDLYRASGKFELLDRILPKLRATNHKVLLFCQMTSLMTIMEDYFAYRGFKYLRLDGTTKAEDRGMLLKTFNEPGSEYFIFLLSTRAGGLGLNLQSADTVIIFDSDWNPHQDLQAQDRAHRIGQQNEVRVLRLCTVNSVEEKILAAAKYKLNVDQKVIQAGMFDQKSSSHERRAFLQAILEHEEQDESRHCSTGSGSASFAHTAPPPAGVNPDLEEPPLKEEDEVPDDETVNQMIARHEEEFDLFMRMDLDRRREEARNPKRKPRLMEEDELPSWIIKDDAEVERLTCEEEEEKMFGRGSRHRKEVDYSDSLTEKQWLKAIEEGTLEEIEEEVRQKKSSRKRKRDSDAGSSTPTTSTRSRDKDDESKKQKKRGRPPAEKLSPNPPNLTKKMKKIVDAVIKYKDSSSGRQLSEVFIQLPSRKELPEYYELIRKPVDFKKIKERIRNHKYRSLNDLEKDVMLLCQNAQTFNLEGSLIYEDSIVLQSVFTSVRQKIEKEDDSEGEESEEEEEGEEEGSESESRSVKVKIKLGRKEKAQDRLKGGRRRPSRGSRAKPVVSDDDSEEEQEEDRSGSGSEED

| Compound | pIC50 (FL-SMARCA4; FL-SMARCA4 IC50, Table 3.2) | pIC50 ([1]; Table 3.1) | pIC50 (FL-SMARCA4; FL-SMARCA4 IC>50, Table 3c.2) | pIC50 ([1]; Table 3c.1) |
| --- | --- | --- | --- | --- |
| CCn1cc(NC(=O)c2cc(Cl)c(OC)s2)ccc1=O [Compound 116] | < 4.30 | 4.41 | – | – |
| CCc1cc(NC(=O)c2cc(Cl)c(Cl)s2)cn(CC)c1=O [Compound 117] | < 4.30 | < 4.30 | – | – |
| CCn1cc(NC(=O)c2cc(Cl)c(Cl)s2)cc(OCCOC)c1=O [Compound 118] | < 4.30 | < 4.30 | – | – |
| CCn1cc(NC(=O)c2cc(Cl)c(Cl)s2)cc(OCCN2CCN(C)CC2)c1=O [Compound 119] | < 4.30 | < 4.30 | – | – |
| O=C(Nc1cc(F)c(=O)n(CC(F)F)c1)c1cc(N2CCN(c3ccncc3)CC2)c(Cl)s1 [Compound 119c] | – | – | 4.79 | 5.21 |
| CCn1cc(NC(=O)c2cc(Cl)c(Cl)s2)cc(Cc2ccccc2)c1=O [Compound 120] | < 4.30 | < 4.30 | – | – |
| CCn1cc(NC(=O)c2cc(Cl)c(Cl)s2)cc(OCCN(C)C)c1=O [Compound 121] | < 4.30 | < 4.30 | – | – |
| CCn1cc(NC(=O)c2cc(Cl)c(Cl)s2)cc(OCCN2CCOCC2)c1=O [Compound 122] | < 4.30 | < 4.30 | – | – |
| CCn1cc(NC(=O)c2cc(Cl)c(Cl)s2)cc(C#N)c1=O [Compound 123] | 4.94 | 5.92 | – | – |
| CCn1cc(NC(=O)c2cn(C(F)(F)F)c(Cl)n2)ccc1=O [Compound 124] | < 4.30 | < 4.30 | – | – |
| CCn1cc(NC(=O)c2cc(Cl)c(Cl)s2)cc(NC)c1=O [Compound 126] | < 4.30 | 4.33 | – | – |
| N#Cc1sc(C(=O)Nc2ccc(=O)n(CC(F)(F)F)c2)cc1Cl [Compound 127] | 6.28 | 6.60 | – | – |
| CCn1cc(NC(=O)c2cnc(Cl)s2)cc(F)c1=O [Compound 130] | 6.35 | 6.83 | – | – |
| N#Cc1sc(C(=O)Nc2ccc(=O)n(CCF)c2)cc1Cl [Compound 132] | 6.52 | 6.85 | – | – |
| CCn1cc(NC(=O)c2cc(Cl)c(Cl)n2C)cc(Cl)c1=O [Compound 133] | 5.66 | 6.47 | – | – |
| O=C(Nc1cc(F)c(=O)n(CC(F)F)c1)c1cc(C#Cc2ccnnc2)c(Cl)s1 [Compound 133c] | – | – | 7.22 | 7.86 |
| Cn1c(C(=O)Nc2cc(Cl)c(=O)n(CCF)c2)cc(Cl)c1Cl [Compound 134] | 6.20 | 6.83 | – | – |
| Cn1c(C(=O)Nc2cc(Cl)c(=O)n(CC(F)(F)F)c2)cc(Cl)c1Cl [Compound 135] | 5.70 | 6.53 | – | – |
| O=C(Nc1cc(F)c(=O)n(CC(F)F)c1)C1CCC(C(F)(F)F)O1 (stereo not shown) [Compound 135c] | – | – | 4.45 | 4.40 |
| O=C(Nc1cc(F)c(=O)n(CC(F)F)c1)c1cc(C#Cc2cccc3c2CNC3=O)c(Cl)s1 [Compound 137c] | – | – | 6.25 | 6.52 |
| O=C(Nc1cc(F)c(=O)n(CC(F)F)c1)c1cc(C#Cc2cccc(CO)c2)c(Cl)s1 [Compound 138c] | – | – | 7.18 | 7.54 |
| CCn1cc(NC(=O)c2csc(Cl)n2)ccc1=O [Compound 147] | < 4.30 | 4.77 | – | – |
| CCn1cc(NC(=O)c2cc(Cl)c(Cl)s2)cc(N(C)C)c1=O [Compound 149] | < 4.30 | < 4.30 | – | – |
| Cn1c(C(=O)Nc2cc(F)c(=O)n(CCF)c2)cc(Cl)c1C#N [Compound 152] | 6.21 | 6.78 | – | – |

| Compound | pIC50 (FL-SMARCA4; FL-SMARCA4 IC50, Table 3.2) | pIC50 ([1]; Table 3.1) | pIC50 (FL-SMARCA4; FL-SMARCA4 IC>50, Table 3c.2) | pIC50 ([1]; Table 3c.1) |
| --- | --- | --- | --- | --- |
| O=C(Nc1cc(F)c(=O)n(CC(F)F)c1)c1cc(C2CC(c3ccncc3)C2)c(Cl)s1 (stereo not shown) [Compound 152c] | – | – | 4.43 | 5.33 |
| Cn1c(C(=O)Nc2cc(F)c(=O)n(CCF)c2)cc(Cl)c1Cl [Compound 153] | 6.15 | 6.83 | – | – |
| O=C(Nc1ccc(=O)n(CCF)c1)c1cc(Cl)n[nH]1 [Compound 154] | 5.09 | 5.71 | – | – |
| O=C(Nc1cc(F)c(=O)n(CCF)c1)c1cc(Cl)n[nH]1 [Compound 155] | 6.28 | 6.79 | – | – |
| O=C(Nc1cc(Cl)c(=O)n(CCF)c1)c1cc(Cl)n[nH]1 [Compound 156] | 6.05 | 6.63 | – | – |
| O=C(Nc1ccc(=O)n(CCF)c1)c1cc(Cl)c(Cl)[nH]1 [Compound 157] | 4.96 | 5.82 | – | – |
| CCn1cc(NC(=O)c2cc(Cl)c(Cl)[nH]2)cc(Cl)c1=O [Compound 158] | 4.86 | 5.73 | – | – |
| O=C(Nc1cc(F)c(=O)n(CCF)c1)c1cc(Cl)c(Cl)[nH]1 [Compound 159] | 6.12 | 6.71 | – | – |
| Cn1c(C(=O)Nc2cc(F)c(=O)n(CC(F)(F)F)c2)cc(Cl)c1C#N [Compound 160] | 6.06 | 6.65 | – | – |
| CCn1cc(NC(=O)c2cc(Cl)c(C#N)n2C)cc(Cl)c1=O [Compound 161] | 5.39 | 6.26 | – | – |
| Cn1c(C(=O)Nc2cc(Cl)c(=O)n(CCF)c2)cc(Cl)c1C#N [Compound 162] | 6.03 | 6.71 | – | – |
| Cn1c(C(=O)Nc2cc(Cl)c(=O)n(CC(F)(F)F)c2)cc(Cl)c1C#N [Compound 163] | 5.93 | 6.51 | – | – |
| CCn1cc(NC(=O)c2cc(Cl)c(Cl)n2C)cc(F)c1=O [Compound 164] | 5.87 | 6.51 | – | – |
| CCn1cc(NC(=O)c2cc(Cl)n[nH]2)cc(F)c1=O [Compound 165] | 5.97 | 6.46 | – | – |
| O=C(Nc1ccc(=O)n(CC(F)(F)F)c1)c1cc(Cl)c(Cl)[nH]1 [Compound 166] | 4.78 | 5.56 | – | – |
| CCn1cc(NC(=O)c2cc(Cl)c(Cl)[nH]2)cc(F)c1=O [Compound 167] | 5.54 | 6.22 | – | – |
| O=C(Nc1cc(F)c(=O)n(CC(F)(F)F)c1)c1cc(Cl)c(Cl)[nH]1 [Compound 169] | 5.85 | 6.43 | – | – |
| CCn1cc(NC(=O)c2cc(OC)c(OC)s2)ccc1=O [Compound 171] | < 4.30 | < 4.30 | – | – |
| CCn1cc(NC(=O)c2cc(C#N)c(Cl)s2)cc(Cl)c1=O [Compound 172] | 5.97 | 6.62 | – | – |
| CCn1cc(NC(=O)c2cc(Cl)c(C#N)n2C)cc(F)c1=O [Compound 174] | 5.83 | 6.41 | – | – |
| CCn1cc(NC(=O)c2cc(C#N)[nH]n2)ccc1=O [Compound 175] | 5.25 | 5.69 | – | – |
| CNC(=O)c1cccc(N2CC(c3cc(C(=O)Nc4cc(F)c(=O)n(CC(F)F)c4)sc3Cl)C2)c1 [Compound 176c] | – | – | 5.04 | 5.04 |
| Cc1cc(NC(=O)c2cc(Cl)c(Cl)s2)cn(C)c1=O [Compound 177] | < 4.30 | < 4.30 | – | – |
| Cn1cc(NC(=O)c2cc(Cl)c(Cl)s2)cc(Cl)c1=O [Compound 178] | 4.42 | 4.51 | – | – |

| Compound | pIC50 (FL-SMARCA4; FL-SMARCA4 IC50, Table 3.2) | pIC50 ([1]; Table 3.1) | pIC50 (FL-SMARCA4; FL-SMARCA4 IC>50, Table 3c.2) | pIC50 ([1]; Table 3c.1) |
| --- | --- | --- | --- | --- |
| CCn1cc(NC(=O)c2cc(OC)c(O)s2)ccc1=O [Compound 179] | < 4.30 | < 4.30 | – | – |
| CCn1cc(NC(=O)c2cc(C#N)c(Cl)s2)cc(F)c1=O [Compound 180] | 6.42 | 7.07 | – | – |
| CCn1cc(NC(=O)c2cc(C#N)c(C#N)s2)ccc1=O [Compound 181] | 6.50 | 6.94 | – | – |
| CCn1cc(NC(=O)c2cnc(C#N)[nH]2)ccc1=O [Compound 183] | < 4.30 | < 4.30 | – | – |
| CCn1cc(NC(=O)c2csc(C(N)=O)n2)ccc1=O [Compound 184] | < 4.30 | < 4.30 | – | – |
| CCc1cc(NC(=O)c2cc(Cl)c(Cl)s2)cn(C)c1=O [Compound 185] | < 4.30 | < 4.30 | – | – |
| CCn1cc(NC(=O)c2cc(Cl)c(Cl)s2)cc(Cc2cnn(C)c2)c1=O [Compound 186] | < 4.30 | 4.81 | – | – |
| N#Cc1cc(C(=O)Nc2ccc(=O)n(CCF)c2)sc1Cl [Compound 187] | 6.21 | 6.80 | – | – |
| N#Cc1cc(NC(=O)c2cc(Cl)c(Cl)s2)cn(CCF)c1=O [Compound 193] | 5.05 | 5.91 | – | – |
| Cn1c(C(=O)Nc2cc(Cl)c(=O)n(CCF)c2)cnc1Cl [Compound 194] | 4.66 | 5.51 | – | – |
| Cn1c(C(=O)Nc2cc(Cl)c(=O)n(CC(F)(F)F)c2)cnc1Cl [Compound 195] | 4.53 | 5.12 | – | – |
| N#Cc1cc(C(=O)Nc2ccc(=O)n(CC(F)(F)F)c2)sc1Cl [Compound 197] | 6.08 | 6.55 | – | – |
| N#Cc1cc(C(=O)Nc2ccc(=O)n(CC(F)(F)F)c2)sc1C#N [Compound 198] | 6.55 | 6.97 | – | – |
| CCn1cc(NC(=O)c2csc(C#N)n2)ccc1=O [Compound 199] | < 4.30 | < 4.30 | – | – |
| COc1ccc(Cn2c(C(=O)Nc3ccc(=O)n(CCF)c3)cc(Cl)c2C#N)cc1 [Compound 200] | 4.34 | 4.32 | – | – |
| O=C(Nc1cc(F)c(=O)n(CCF)c1)c1csc(NC2CCCC2)n1 [Compound 201] | < 4.30 | < 4.30 | – | – |
| CCn1cc(NC(=O)c2csc(NC3CCCC3)n2)ccc1=O [Compound 202] | < 4.30 | < 4.30 | – | – |
| Cn1c(C(=O)Nc2cc(C#N)c(=O)n(CCF)c2)cc(Cl)c1C#N [Compound 204] | 5.24 | 5.90 | – | – |
| Cn1c(C(=O)Nc2cc(F)c(=O)n(CCF)c2)cnc1Cl [Compound 205] | 4.65 | 5.46 | – | – |
| CCn1cc(NC(=O)c2cnc(C#N)s2)ccc1=O [Compound 206] | 6.19 | 6.50 | – | – |
| N#Cc1cc(C(=O)Nc2cc(Cl)c(=O)n(CC(F)(F)F)c2)sc1Cl [Compound 208] | 6.20 | 6.91 | – | – |
| CCn1cc(NC(=O)c2csc(NC)n2)ccc1=O [Compound 209] | < 4.30 | < 4.30 | – | – |
| N#Cc1sc(C(=O)Nc2cc(C#N)c(=O)n(CCF)c2)cc1Cl [Compound 210] | 6.16 | 6.68 | – | – |
